Measurements taken from patent US6028110A, “Succinyl hydroxamic acid, N-formyl-N-hydroxy amino carboxylic acid and succinic acid amide derivatives as metalloprotease inhibitors” (British Biotech Pharmaceuticals Ltd., priority 1994, dated 2000).
Counter-ions that a name gives are not always drawn.

Assays:
[1] = system: human PUMP-1 (matrilysin); assay: Inhibition of human PUMP-1 (matrilysin) ([14C]-casein degradation assay); assay type: biochemical; details: 16 hours at 37° C, recombinant human PUMP-1 expressed in CHO cells
Description: Recombinant human PUMP-1 was expressed in CHO cells and purified by heparin-agarose and Procion Red chromatography. A [^14 C]-casein degradation assay was used to measure PUMP-1 activity. […] The incubation was terminated by addition of trichloroacetic acid (final concentration 10%) and the substrate was separated from the TCA-soluble degradation products by centrifugation at 10,000 g for 15 minutes. […] The inhibitors were dissolved and diluted in DMSO. […] For weak inhibitors, the percentage inhibition (% I) at a concentration of 100 μM is given.

collagenase = assay: Inhibition of collagenase (acetylated 14C collagen, Cawston and Barrett); assay type: biochemical; details: 37°, 16 hours, pH 7.5
Description: The collagen was acetylated ^14 C collagen prepared by the method of Cawston and Murphy, (Methods in Enzymology, 80, 711, 1981), hereby incorporated by reference. The samples were centrifuged to sediment undigested collagen, and an aliquot of the radioactive supernatant removed for assay on a scintillation counter as a measure of hydrolysis. […] For weak inhibitors, the percentage inhibition (% I) at a concentration of 100 μM is given.

| SMILES | PUMP % Inhibition @ 100 μM [1] [% I] | Collagenase % Inhibition @ 100 μM (collagenase) [% I] |
| --- | --- | --- |
| CCCCCCCCCCCC[C@H](CC(=O)O)C(=O)N[C@@H](Cc1ccccc1)C(=O)NC [Comparator Example A, 3R-(1S-Methylcarbamoyl-2-phenyl-ethylcarbamoyl)-pentadecanoic acid] | 10 | 30 |
| CCCCCCCCCCCCCCCC[C@H](CC(=O)O)C(=O)N[C@@H](Cc1ccccc1)C(=O)NC [Example 1, 3R-(1S-Methylcarbamoyl-2-phenyl-ethylcarbamoyl)nonadecanoic acid (dicyclohexylamine salt)] | 20 | 0 |
